Assay results from PubChem BioAssay (NCI).
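Cultured in 96-well plates, cells were exposed to test compound for 48 hours across five concentrations. TGI: concentration producing complete growth inhibition.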 Where a SMILES comes first, the peptide text is derived from it. [ ]: non-standard residue; d: D form. Ac5c = NC1(C(=O)O)CCCC1

Assays:
Experiment in all cases: DTP human tumour cell line panel, 48 h
786-0 renal = system: 786-0 renal
A498 renal = system: A498 renal
A549 NSCLC = system: A549 NSCLC
ACHN renal = system: ACHN renal
BT-549 breast = system: BT-549 breast
CAKI-1 renal = system: CAKI-1 renal
COLO 205 colon = system: COLO 205 colon
DU-145 prostate = system: DU-145 prostate
EKVX NSCLC = system: EKVX NSCLC
HCC-2998 colon = system: HCC-2998 colon
HCT-116 colon = system: HCT-116 colon
HCT-15 colon = system: HCT-15 colon
HOP-62 NSCLC = system: HOP-62 NSCLC
HOP-92 NSCLC = system: HOP-92 NSCLC
HS 578T breast = system: HS 578T breast
HT29 colon = system: HT29 colon
IGROV1 ovarian = system: IGROV1 ovarian
K-562 leukemia = system: K-562 leukemia
KM12 colon = system: KM12 colon
LOX IMVI melanoma = system: LOX IMVI melanoma
M14 melanoma = system: M14 melanoma
MALME-3M melanoma = system: MALME-3M melanoma
MCF7 breast = system: MCF7 breast
MDA-MB-231 breast = system: MDA-MB-231 breast
MDA-MB-435 = system: MDA-MB-435
MDA-N = system: MDA-N
MOLT-4 leukemia = system: MOLT-4 leukemia
NCI-H23 lung = system: NCI-H23 lung
NCI-H460 lung = system: NCI-H460 lung
NCI-H522 lung = system: NCI-H522 lung
NCI/ADR-RES ovarian = system: NCI/ADR-RES ovarian
OVCAR-3 ovarian = system: OVCAR-3 ovarian
OVCAR-4 ovarian = system: OVCAR-4 ovarian
OVCAR-5 ovarian = system: OVCAR-5 ovarian
OVCAR-8 ovarian = system: OVCAR-8 ovarian
PC-3 prostate = system: PC-3 prostate
RPMI-8226 leukemia = system: RPMI-8226 leukemia
RXF 393 renal = system: RXF 393 renal
SF-268 CNS = system: SF-268 CNS
SF-295 CNS = system: SF-295 CNS
SF-539 CNS = system: SF-539 CNS
SK-MEL-2 melanoma = system: SK-MEL-2 melanoma
SK-MEL-28 melanoma = system: SK-MEL-28 melanoma
SK-MEL-5 melanoma = system: SK-MEL-5 melanoma
SK-OV-3 ovarian = system: SK-OV-3 ovarian
SN12C renal = system: SN12C renal
SNB-19 CNS = system: SNB-19 CNS
SNB-75 CNS = system: SNB-75 CNS
SR leukemia = system: SR leukemia
SW-620 colon = system: SW-620 colon
T-47D breast = system: T-47D breast
TK-10 renal = system: TK-10 renal
U251 CNS = system: U251 CNS
UACC-257 melanoma = system: UACC-257 melanoma
UACC-62 melanoma = system: UACC-62 melanoma
UO-31 renal = system: UO-31 renal
CCRF-CEM leukemia = system: CCRF-CEM leukemia
NCI-H226 lung = system: NCI-H226 lung

Work on NCC(=O)NC1(C(=O)O)CCCC1 (H-Gly-[Ac5c]-OH) yielded a TGI (786-0 renal) greater than 100 µM, a TGI (A498 renal) greater than 100 µM and a TGI (A549 NSCLC) greater than 100 µM. It also gave a TGI (ACHN renal) greater than 100 µM, a TGI (BT-549 breast) greater than 100 µM and a TGI (CAKI-1 renal) greater than 100 µM. It also gave a TGI (COLO 205 colon) greater than 100 µM, a TGI (DU-145 prostate) greater than 100 µM and a TGI (EKVX NSCLC) greater than 100 µM. For the same compound, the TGI (HCC-2998 colon) was greater than 100 µM, the TGI (HCT-116 colon) was greater than 100 µM and the TGI (HCT-15 colon) was greater than 100 µM. For the same compound, the TGI (HOP-62 NSCLC) was greater than 100 µM, the TGI (HOP-92 NSCLC) was greater than 100 µM and the TGI (HS 578T breast) was greater than 100 µM. It also gave a TGI (HT29 colon) greater than 100 µM, a TGI (IGROV1 ovarian) greater than 100 µM and a TGI (K-562 leukemia) greater than 100 µM. It also gave a TGI (KM12 colon) greater than 100 µM, a TGI (LOX IMVI melanoma) greater than 100 µM and a TGI (M14 melanoma) greater than 100 µM. It also gave a TGI (MALME-3M melanoma) greater than 100 µM, a TGI (MCF7 breast) greater than 100 µM and a TGI (MDA-MB-231 breast) greater than 100 µM. For the same compound, the TGI (MDA-MB-435) was greater than 100 µM, the TGI (MDA-N) was greater than 100 µM and the TGI (MOLT-4 leukemia) was greater than 100 µM. It also gave a TGI (NCI-H23 lung) greater than 100 µM, a TGI (NCI-H460 lung) greater than 100 µM and a TGI (NCI-H522 lung) greater than 100 µM. It also gave a TGI (NCI/ADR-RES ovarian) greater than 100 µM, a TGI (OVCAR-3 ovarian) greater than 100 µM and a TGI (OVCAR-4 ovarian) greater than 100 µM. For the same compound, the TGI (OVCAR-5 ovarian) was greater than 100 µM, the TGI (OVCAR-8 ovarian) was greater than 100 µM and the TGI (PC-3 prostate) was greater than 100 µM. It also gave a TGI (RPMI-8226 leukemia) greater than 100 µM, a TGI (RXF 393 renal) greater than 100 µM and a TGI (SF-268 CNS) greater than 100 µM. For the same compound, the TGI (SF-295 CNS) was greater than 100 µM, the TGI (SF-539 CNS) was greater than 100 µM and the TGI (SK-MEL-2 melanoma) was greater than 100 µM. It also gave a TGI (SK-MEL-28 melanoma) greater than 100 µM, a TGI (SK-MEL-5 melanoma) greater than 100 µM and a TGI (SK-OV-3 ovarian) greater than 100 µM. The TGI (SN12C renal) was greater than 100 µM, the TGI (SNB-19 CNS) was greater than 100 µM and the TGI (SNB-75 CNS) was greater than 100 µM. It also gave a TGI (SR leukemia) greater than 100 µM, a TGI (SW-620 colon) greater than 100 µM and a TGI (T-47D breast) greater than 100 µM. It also gave a TGI (TK-10 renal) greater than 100 µM, a TGI (U251 CNS) greater than 100 µM and a TGI (UACC-257 melanoma) greater than 100 µM. For the same compound, the TGI (UACC-62 melanoma) was greater than 100 µM and the TGI (UO-31 renal) was greater than 100 µM.

Compound CCCCC/C=C1\CC(CO)(COC(=O)CC(C(C)C)C(C)C)OC1=O (stereo unspecified) has a TGI (786-0 renal) of 30.3 µM, a TGI (A498 renal) of 33.7 µM and a TGI (A549 NSCLC) of 28.8 µM. The TGI (ACHN renal) was 28.7 µM, the TGI (BT-549 breast) was 31 µM and the TGI (CAKI-1 renal) was 24.3 µM. The TGI (CCRF-CEM leukemia) was greater than 100 µM, the TGI (COLO 205 colon) was 15.3 µM and the TGI (DU-145 prostate) was 44.9 µM. For the same compound, the TGI (EKVX NSCLC) was 30.3 µM, the TGI (HCC-2998 colon) was 32.6 µM and the TGI (HCT-116 colon) was 44.4 µM. For the same compound, the TGI (HCT-15 colon) was 38.9 µM, the TGI (HOP-62 NSCLC) was 21.1 µM and the TGI (HOP-92 NSCLC) was 20.9 µM. The TGI (HS 578T breast) was 18.3 µM, the TGI (HT29 colon) was 40.1 µM and the TGI (IGROV1 ovarian) was 31.8 µM. It also gave a TGI (K-562 leukemia) of 44.2 µM, a TGI (KM12 colon) of 28.3 µM and a TGI (M14 melanoma) of 32.4 µM. It also gave a TGI (MALME-3M melanoma) of 31.9 µM, a TGI (MCF7 breast) of 39.3 µM and a TGI (MDA-MB-231 breast) of 40.2 µM. The TGI (MDA-MB-435) was 22 µM, the TGI (MDA-N) was 26.4 µM and the TGI (MOLT-4 leukemia) was 54.1 µM. The TGI (NCI-H226 lung) was 27.2 µM, the TGI (NCI-H23 lung) was 36.4 µM and the TGI (NCI-H460 lung) was greater than 100 µM. The TGI (NCI-H522 lung) was 33.6 µM, the TGI (NCI/ADR-RES ovarian) was 47 µM and the TGI (OVCAR-3 ovarian) was 32.3 µM. For the same compound, the TGI (OVCAR-4 ovarian) was 46.5 µM, the TGI (OVCAR-5 ovarian) was 27.7 µM and the TGI (OVCAR-8 ovarian) was 32.1 µM. The TGI (PC-3 prostate) was 27.5 µM, the TGI (RXF 393 renal) was 33.9 µM and the TGI (SF-268 CNS) was 35.5 µM. It also gave a TGI (SF-295 CNS) of 20 µM, a TGI (SK-MEL-2 melanoma) of 49 µM and a TGI (SK-MEL-28 melanoma) of 36.2 µM. It also gave a TGI (SK-MEL-5 melanoma) of 22.9 µM, a TGI (SK-OV-3 ovarian) of 38.7 µM and a TGI (SN12C renal) of 31.8 µM. It also gave a TGI (SNB-19 CNS) of 30.3 µM, a TGI (SNB-75 CNS) of 26.8 µM and a TGI (SR leukemia) greater than 100 µM. It also gave a TGI (SW-620 colon) greater than 100 µM, a TGI (T-47D breast) of 55.1 µM and a TGI (TK-10 renal) of 36.8 µM. It also gave a TGI (U251 CNS) of 31.6 µM, a TGI (UACC-257 melanoma) of 45.6 µM and a TGI (UACC-62 melanoma) of 39 µM. It also gave a TGI (UO-31 renal) of 28.6 µM.
